In patent publication US11208400B2, “Substituted 6-(1H-pyrazol-1-yl)pyrimidin-4-amine derivatives and uses thereof” (Bayer Aktiengesellschaft, priority 2016, dated 2021):

Target: T1, human Npt2a (Homo sapiens, UniProt Q06495)
T1 construct: expressed in transfected cells
T1 sequence (Q06495 1-639): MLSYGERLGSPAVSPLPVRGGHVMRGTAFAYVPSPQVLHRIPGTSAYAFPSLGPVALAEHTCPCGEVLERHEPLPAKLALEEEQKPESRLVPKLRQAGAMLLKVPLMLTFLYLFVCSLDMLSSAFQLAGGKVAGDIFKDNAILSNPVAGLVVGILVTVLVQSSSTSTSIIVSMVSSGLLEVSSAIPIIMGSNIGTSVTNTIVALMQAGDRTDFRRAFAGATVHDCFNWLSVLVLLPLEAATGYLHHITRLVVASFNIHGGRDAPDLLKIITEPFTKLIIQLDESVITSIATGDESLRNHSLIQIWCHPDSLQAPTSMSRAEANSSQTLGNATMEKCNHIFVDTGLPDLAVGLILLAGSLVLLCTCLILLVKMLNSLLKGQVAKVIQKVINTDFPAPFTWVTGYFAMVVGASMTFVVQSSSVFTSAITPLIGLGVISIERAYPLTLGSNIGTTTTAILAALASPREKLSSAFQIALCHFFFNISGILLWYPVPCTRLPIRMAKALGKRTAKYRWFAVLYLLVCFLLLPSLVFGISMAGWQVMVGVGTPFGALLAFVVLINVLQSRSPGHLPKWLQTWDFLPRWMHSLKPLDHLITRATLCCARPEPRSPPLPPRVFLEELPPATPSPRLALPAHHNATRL
Test: Npt2a activity cell based assay, membrane potential dye, CHO T-REx hNpt2a cells
Settings: doxycycline-induced, depolarization by sodium phosphate influx, average or median values if tested more than once
Method in brief: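 Doxycycline-induced (0.5 μg/mL, 24 h) CHO T-REx cells were loaded with membrane potential dye in sodium-free NHE buffer (pH 7.4) and exposed to compound (50 μM–1 nM, 5 min, room temperature).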

Row | SMILES | IC50
1 | COCCn1nc(-c2ccc(F)cc2)c(C)c1Nc1cc(-n2nc(C)cc2C)ncn1 [Example 525, 6-(3,5-dimethyl-1H-pyrazol-1-yl)-N-[3-(4-fluorophenyl)-1-(2-methoxyethyl)-4-methyl-1H-pyrazol-5-yl]pyrimidin-4-amine] | 4 nM
2 | COCCn1nc(-c2ccc(F)cc2)c(C)c1Nc1cc(-n2nc(C)c(OC)c2C)ncn1 [Example 526, N-[3-(4-fluorophenyl)-1-(2-methoxyethyl)-4-methyl-1H-pyrazol-5-yl]-6-(4-methoxy-3,5-dimethyl-1H-pyrazol-1-yl)pyrimidin-4-amine] | 17 nM
3 | COCCn1nc(-c2ccc(F)cc2)c(C)c1Nc1cc(-n2nc(C)cc2C(F)F)ncn1 [Example 527, 6-[5-(difluoromethyl)-3-methyl-1H-pyrazol-1-yl]-N-[3-(4-fluorophenyl)-1-(2-methoxyethyl)-4-methyl-1H-pyrazol-5-yl]pyrimidin-4-amine] | 9 nM
4 | CCOC(=O)c1c(C)nn(-c2cc(Nc3c(C)c(-c4ccc(F)cc4)nn3CCOC)ncn2)c1C [Example 528, ethyl 1-(6-{[3-(4-fluorophenyl)-1-(2-methoxyethyl)-4-methyl-1H-pyrazol-5-yl]amino}pyrimidin-4-yl)-3,5-dimethyl-1H-pyrazole-4-carboxylate] | 4 nM
5 | Cc1ccc(-c2nn(CC3CC3)c(Nc3cc(-n4nc(C)cc4C)ncn3)c2C)cn1 [Example 529, N-[1-(cyclopropylmethyl)-4-methyl-3-(6-methylpyridin-3-yl)-1H-pyrazol-5-yl]-6-(3,5-dimethyl-1H-pyrazol-1-yl)pyrimidin-4-amine] | 2700 nM
6 | Cc1ccc(-c2nn(C)c(Nc3cc(-n4nc(C)c(C(F)(F)F)c4C)ncn3)c2C)cn1 [Example 530, N-[1,4-dimethyl-3-(6-methylpyridin-3-yl)-1H-pyrazol-5-yl]-6-[3,5-dimethyl-4-(trifluoromethyl)-1H-pyrazol-1-yl]pyrimidin-4-amine] | 33 nM
7 | COc1c(Nc2cc(-n3nc(C)c(CC(C)(C)O)c3C)ncn2)nn(C)c1-c1ccc(C#N)cc1 [Example 531, 4-[3-({6-[4-(2-hydroxy-2-methylpropyl)-3,5-dimethyl-1H-pyrazol-1-yl]pyrimidin-4-yl}amino)-4-methoxy-1-methyl-1H-pyrazol-5-yl]benzonitrile] | 1500 nM
8 | Cc1cc(C(F)F)n(-c2cc(Nc3c(C)c(-c4ccc(C(F)(F)F)nc4)nn3CC3CC3)ncn2)n1 [Example 532, N-{1-(cyclopropylmethyl)-4-methyl-3-[6-(trifluoromethyl)pyridin-3-yl]-1H-pyrazol-5-yl}-6-[5-(difluoromethyl)-3-methyl-1H-pyrazol-1-yl]pyrimidin-4-amine] | 2800 nM
9 | Cc1cc(C)n(-c2cc(Nc3c(C)c(-c4ccc(C(F)(F)F)nc4)nn3CC3CC3)ncn2)n1 [Example 533, N-{1-(cyclopropylmethyl)-4-methyl-3-[6-(trifluoromethyl)pyridin-3-yl]-1H-pyrazol-5-yl}-6-(3,5-dimethyl-1H-pyrazol-1-yl)pyrimidin-4-amine] | 2000 nM
10 | Cc1nn(-c2cc(Nc3c(C)c(-c4ccc(C(F)(F)F)nc4)nn3CC3CC3)ncn2)c(C)c1Cl [Example 534, 6-(4-chloro-3,5-dimethyl-1H-pyrazol-1-yl)-N-{1-(cyclopropylmethyl)-4-methyl-3-[6-(trifluoromethyl)pyridin-3-yl]-1H-pyrazol-5-yl}pyrimidin-4-amine] | 1500 nM
11 | COc1c(C)nn(-c2cc(Nc3c(C)c(-c4ccc(C(F)(F)F)nc4)nn3CC3CC3)ncn2)c1C [Example 535, N-{1-(cyclopropylmethyl)-4-methyl-3-[6-(trifluoromethyl)pyridin-3-yl]-1H-pyrazol-5-yl}-6-(4-methoxy-3,5-dimethyl-1H-pyrazol-1-yl)pyrimidin-4-amine] | 26 nM
12 | COCCn1nc(-c2ccc(C(F)F)cc2)c(C)c1Nc1cc(-n2nc(C)cc2C)ncn1 [Example 536, N-{3-[4-(difluoromethyl)phenyl]-1-(2-methoxyethyl)-4-methyl-1H-pyrazol-5-yl}-6-(3,5-dimethyl-1H-pyrazol-1-yl)pyrimidin-4-amine] | 17 nM
13 | COCCn1nc(-c2ccc(C(F)F)cc2)c(C)c1Nc1cc(-n2nc(C)c(Cl)c2C)ncn1 [Example 537, 6-(4-chloro-3,5-dimethyl-1H-pyrazol-1-yl)-N-{3-[4-(difluoromethyl)phenyl]-1-(2-methoxyethyl)-4-methyl-1H-pyrazol-5-yl}pyrimidin-4-amine] | 26 nM
14 | COCCn1nc(-c2ccc(C(F)F)cc2)c(C)c1Nc1cc(-n2nc(C)cc2C(F)F)ncn1 [Example 538, 6-[5-(difluoromethyl)-3-methyl-1H-pyrazol-1-yl]-N-{3-[4-(difluoromethyl)phenyl]-1-(2-methoxyethyl)-4-methyl-1H-pyrazol-5-yl}pyrimidin-4-amine] | 12 nM
15 | COCCn1nc(-c2ccc(C(F)F)cc2)c(C)c1Nc1cc(-n2nc(C)c(OC)c2C)ncn1 [Example 539, N-{3-[4-(difluoromethyl)phenyl]-1-(2-methoxyethyl)-4-methyl-1H-pyrazol-5-yl}-6-(4-methoxy-3,5-dimethyl-1H-pyrazol-1-yl)pyrimidin-4-amine] | 20 nM
16 | COc1c(Nc2cc(-n3nc(C)c(Cl)c3C)ncn2)nn(C)c1-c1ccc(C#N)cc1 [Example 540, 4-(3-{[6-(4-chloro-3,5-dimethyl-1H-pyrazol-1-yl)pyrimidin-4-yl]amino}-4-methoxy-1-methyl-1H-pyrazol-5-yl)benzonitrile] | 17 nM
17 | COc1c(Nc2cc(-n3nc(C)c(C(F)(F)F)c3C)ncn2)nn(C)c1-c1ccc(C#N)cc1 [Example 541, 4-[3-({6-[3,5-dimethyl-4-(trifluoromethyl)-1H-pyrazol-1-yl]pyrimidin-4-yl}amino)-4-methoxy-1-methyl-1H-pyrazol-5-yl]benzonitrile] | 260 nM
18 | COCCn1nc(-c2ccc(F)cn2)c(C)c1Nc1cc(-n2nc(C)cc2C)ncn1 [Example 542, 6-(3,5-dimethyl-1H-pyrazol-1-yl)-N-[3-(5-fluoropyridin-2-yl)-1-(2-methoxyethyl)-4-methyl-1H-pyrazol-5-yl]pyrimidin-4-amine] | 28 nM
19 | COCCn1nc(-c2ccc(F)cn2)c(C)c1Nc1cc(-n2nc(C)cc2C(F)F)ncn1 [Example 543, 6-[5-(difluoromethyl)-3-methyl-1H-pyrazol-1-yl]-N-[3-(5-fluoropyridin-2-yl)-1-(2-methoxyethyl)-4-methyl-1H-pyrazol-5-yl]pyrimidin-4-amine] | 480 nM
20 | COCCn1nc(-c2ccc(F)cn2)c(C)c1Nc1cc(-n2nc(C)c(OC)c2C)ncn1 [Example 544, N-[3-(5-fluoropyridin-2-yl)-1-(2-methoxyethyl)-4-methyl-1H-pyrazol-5-yl]-6-(4-methoxy-3,5-dimethyl-1H-pyrazol-1-yl)pyrimidin-4-amine] | 11 nM
21 | CCOC(=O)c1c(C)nn(-c2cc(Nc3c(C)c(-c4ccc(F)cn4)nn3CCOC)ncn2)c1C [Example 545, ethyl 1-(6-{[3-(5-fluoropyridin-2-yl)-1-(2-methoxyethyl)-4-methyl-1H-pyrazol-5-yl]amino}pyrimidin-4-yl)-3,5-dimethyl-1H-pyrazole-4-carboxylate] | 14 nM
22 | CCOC(=O)c1c(C)nn(-c2cc(Nc3c(C)c(-c4ccc(C(F)F)cc4)nn3CCOC)ncn2)c1C [Example 546, ethyl 1-[6-({3-[4-(difluoromethyl)phenyl]-1-(2-methoxyethyl)-4-methyl-1H-pyrazol-5-yl}amino)pyrimidin-4-yl]-3,5-dimethyl-1H-pyrazole-4-carboxylate] | 14 nM
23 | Cc1nn(-c2cc(Nc3c(C)c(-c4ccc(C#N)cc4)nn3C)ncn2)c(C)c1C(F)(F)F [Example 547, 4-[5-({6-[3,5-dimethyl-4-(trifluoromethyl)-1H-pyrazol-1-yl]pyrimidin-4-yl}amino)-1,4-dimethyl-1H-pyrazol-3-yl]benzonitrile] | 29 nM
24 | Cc1cc(C(F)F)n(-c2cc(Nc3c(C)c(-c4ccc(C(F)(F)F)nc4)nn3C)ncn2)n1 [Example 548, 6-[5-(difluoromethyl)-3-methyl-1H-pyrazol-1-yl]-N-{1,4-dimethyl-3-[6-(trifluoromethyl)pyridin-3-yl]-1H-pyrazol-5-yl}pyrimidin-4-amine] | 790 nM
25 | Cc1cc(C)n(-c2cc(Nc3c(C)c(-c4ccc(C(F)(F)F)nc4)nn3C)ncn2)n1 [Example 549, 6-(3,5-dimethyl-H-pyrazol-1-yl)-N-{1,4-dimethyl-3-[6-(trifluoromethyl)pyridin-3-yl]-1H-pyrazol-5-yl}pyrimidin-4-amine] | 2600 nM
26 | Cc1nn(-c2cc(Nc3c(C)c(-c4ccc(C(F)(F)F)nc4)nn3C)ncn2)c(C)c1Cl [Example 550, 6-(4-chloro-3,5-dimethyl-1H-pyrazol-1-yl)-N-{1,4-dimethyl-3-[6-(trifluoromethyl)pyridin-3-yl]-1H-pyrazol-5-yl}pyrimidin-4-amine] | 500 nM
27 | COc1c(C)nn(-c2cc(Nc3c(C)c(-c4ccc(C(F)(F)F)nc4)nn3C)ncn2)c1C [Example 551, N-{1,4-dimethyl-3-[6-(trifluoromethyl)pyridin-3-yl]-1H-pyrazol-5-yl}-6-(4-methoxy-3,5-dimethyl-1H-pyrazol-1-yl)pyrimidin-4-amine] | 1900 nM
